Legend:
Format in all cases: in vivo
[1] = system: Avena fatua; test: Greenhouse trial, post-emergence, visual herbicidal effect; details: alone
Description: (§1) The weed seeds were sown in pots (diameter 8 cm) with sandy loam soil and germinated under optimum conditions. The herbides were applied by the post-emergence method onto the pots with the cultures, at a spray volume of 300 I/ha. The herbicides were applied on their own and in combination. The trial was conducted in a greenhouse under optimum growth conditions. The herbicidal effects were assessed visually by comparison of untreated and treated plants. The percentages mean: 0%=no effects, 100%=the plants die off completely). The percentages are used to calculate interactions between individual treatments and combination treatment according to S. R. Colby, Weeds 15, pages 20 to 22 (1967).
(§2) The abbreviations denote: • a.i.=active ingredient • E^C=expected value according to Colby (E^C=A+B−A×B100) • Δ=difference (%) of the measured value to the expected value (%) (measured value minus expected value)
(§3) Evaluation: • measured value E is greater than E^C:→synergism (+Δ) • measured value E equals E^C:→additive effect • measured value E is smaller than E^C:→antagonism (−Δ)

[2] = system: Phalaris minor; test: as above; details: Table 5-03, greenhouse, alone, 2 g of a.i./ha
Description: as §1, §2, §3

[3] = system: Viola tricolor; test: as above; details: alone
Description: as §1, §2, §3

[4] = system: Galium aparine; test: Field trial, post-emergence, visual scoring; details: alone
Description: (§4) The tests were conducted outdoors (plot trials, 10 m^2 per plot, 2 repetitions, spray application with 200-300 liters of water per hectare). Crops and broad-leaved weeds/weed grasses were sown under customary field conditions. In addition, a natural weed flora also appeared. Application was by the post-emergence method. The application rates of the herbicidally active compounds applied on their own or in combinations are likewise shown in the tables below. Evaluations were by visual scoring (using a 0-100% scale) after application by comparison of treated and untreated test variants.
as §2, §3

[5] = system: Papaver rhoeas; test: Greenhouse trial, post-emergence, visual herbicidal effect; details: alone
Description: as §1, §2, §3

[6] = system: Polygonum convolvulus; test: as above; details: alone
Description: as §1, §2, §3

[7] = system: Centaurea cyanis; test: as above; details: alone
Description: as §1, §2, §3

[8] = system: Bidens pilosa; test: as above
Description: as §1, §2, §3

[9] = system: Brachiaria platyphylla; test: as above
Description: as §1, §2, §3

[10] = system: Digitaria sanguinalis; test: as above
Description: as §1, §2, §3

[11] = system: Echinochloa crus-galli; test: as above
Description: as §1, §2, §3

[12] = system: Pharbitis purpurea; test: as above; details: alone
Description: as §1, §2, §3

[13] = system: Setaria viridis; test: as above; details: alone
Description: as §1, §2, §3

[14] = system: Xanthium strumarium; test: as above; details: alone
Description: as §1, §2, §3

[15] = system: Veronica hederifolia; test: Field trial, post-emergence, visual scoring; details: alone, 25 g of a.i./ha
Description: as §4, §2, §3

[16] = system: Setaria viridis; test: Field trial, post-emergence, visual scoring; details: alone
Description: as §4, §2, §3

[17] = system: broad-leaved weeds/weed grasses; test: Field trial, post-emergence, visual scoring (species not listed above); details: dosage 25 g of a.i./ha
Description: as §4, §2, §3

[18] = system: Lolium multiflorum; test: Field trial, post-emergence, visual scoring; details: alone
Description: as §4, §2, §3

[19] = system: Sida spinosa; test: Field trial, post-emergence, visual scoring; details: alone
Description: as §4, §2, §3

[20] = system: Cassia obtusifolia; test: Field trial, post-emergence, visual scoring; details: alone
Description: as §4, §2, §3

[21] = system: Ambrosia artemisiifolia; test: Greenhouse trial, post-emergence, visual herbicidal effect; details: alone
Description: as §1, §2, §3

[22] = system: Portulaca oleracea; test: Field trial, post-emergence, visual scoring; details: Table 5-16, field, alone, 50 g of a.i./ha
Description: as §4, §2, §3

Cn1nnnc1NC(=O)c1ccc(C(F)(F)F)cc1S(C)(=O)=O [A1-2]
Activity [%] against Avena fatua ([1]; Table 5-01, greenhouse, 2 g of a.i./ha): 0%
Activity [%] against Phalaris minor [2]: 0%
Activity [%] against Viola tricolor ([3]; Table 5-02, greenhouse, 2 g of a.i./ha): 60%
Activity [%] against Galium aparine ([4]; Table 5-04, field, 25 g of a.i./ha): 70%

Cc1c(C(=O)Nc2nnnn2C)ccc(C(F)(F)F)c1S(C)(=O)=O [A1-7]
Activity [%] against Avena fatua ([1]; Table 5-05, greenhouse, 3 g of a.i./ha): 0%
Activity [%] against Avena fatua ([1]; Table 5-07, greenhouse, 3 g of a.i./ha): 0%
Activity [%] against Papaver rhoeas ([5]; Table 5-06, greenhouse, 3 g of a.i./ha): 60%
Activity [%] against Polygonum convolvulus ([6]; Table 5-08, greenhouse, 3 g of a.i./ha): 10%
Activity [%] against Viola tricolor ([3]; Table 5-09, greenhouse, 3 g of a.i./ha): 50%

Cc1c(C(=O)Nc2nnnn2C)ccc(S(C)(=O)=O)c1-n1cccn1 [A1-26]
Activity [%] against Centaurea cyanis ([7]; Table 5-38, greenhouse, 3 g of a.i./ha): 40%
Activity [%] against Centaurea cyanis ([7]; Table 5-40, greenhouse, 6 g of a.i./ha): 60%
Activity [%] against Papaver rhoeas ([5]; Table 5-39, greenhouse, 6 g of a.i./ha): 50%
Activity [%] against Papaver rhoeas ([5]; Table 5-41, greenhouse, 3 g of a.i./ha): 30%
Activity [%] against Viola tricolor ([3]; Table 5-42, greenhouse, 3 g of a.i./ha): 50%

COCCOCc1c(S(C)(=O)=O)ccc(C(=O)Nc2nnnn2C)c1Cl [A1-63]
Activity [%] against Bidens pilosa ([8]; Table 5-71, greenhouse, alone, 8 g of a.i./ha): 50%
Activity [%] against Brachiaria platyphylla ([9]; Table 5-67, greenhouse, alone, 8 g of a.i./ha): 10%
Activity [%] against Digitaria sanguinalis ([10]; Table 5-68, greenhouse, alone, 8 g of a.i./ha): 45%
Activity [%] against Echinochloa crus-galli ([11]; Table 5-69, greenhouse, alone, 8 g of a.i./ha): 85%
Activity [%] against Pharbitis purpurea ([12]; Table 5-72, greenhouse, 4 g of a.i./ha): 35%
Activity [%] against Setaria viridis ([13]; Table 5-70, greenhouse, 4 g of a.i./ha): 50%
Activity [%] against Xanthium strumarium ([14]; Table 5-73, greenhouse, 8 g of a.i./ha): 80%
Activity [%] against Veronica hederifolia ([15]; Table 5-74, field): 68%

COc1c(S(C)(=O)=O)ccc(C(=O)Nc2nnnn2C)c1Cl [A1-67]
Activity [%] against Polygonum convolvulus ([6]; Table 5-78, greenhouse, 4 g of a.i./ha): 10%
Activity [%] against Xanthium strumarium ([14]; Table 5-77, greenhouse, 4 g of a.i./ha): 0%
Activity [%] against Setaria viridis ([16]; Table 5-80, field, 25 g of a.i./ha): 65%
Activity [%] against Veronica hederifolia ([15]; Table 5-79, field): 75%

COc1c(C(=O)Nc2nnnn2C)ccc(C(F)F)c1SC [A1-81]
Activity [%] against Brachiaria platyphylla ([9]; Table 5-94, greenhouse, alone, 1 g of a.i./ha): 10%
Activity [%] against Echinochloa crus-galli ([11]; Table 5-95, greenhouse, alone, 1 g of a.i./ha): 10%

Cn1ncnc1NC(=O)c1ccc(C(F)(F)F)c(S(C)(=O)=O)c1Cl [A2-9]
Activity [%] against Brachiaria platyphylla ([9]; Greenhouse, dosage 1 g of a.i./ha, Table 5-105): 0%
Activity [%] against Digitaria sanguinalis ([10]; Greenhouse, dosage 2 g of a.i./ha): 65%
Activity [%] against Echinochloa crus-galli ([11]; Greenhouse, dosage 1 g of a.i./ha, Table 5-108): 0%

COCc1nc(C(F)(F)F)ccc1C(=O)Nc1nnnn1C [A4-2]
Activity [%] against Brachiaria platyphylla ([9]; Greenhouse, dosage 1 g of a.i./ha, Table 5-113): 0%
Activity [%] against Stellaria media ([17]; Table 5-114): 63%

Cn1nnnc1NC(=O)c1ccc(C(F)(F)F)nc1Cl [A4-7]
Activity [%] against Echinochloa crus-galli ([11]; Greenhouse, dosage 3 g of a.i./ha, Table 5-115): 50%
Activity [%] against Stellaria media ([17]; Table 5-116): 60%

Cc1cc(Cl)ccc1OCC(=O)O [MCPA]
Activity [%] against Galium aparine ([4]; Table 5-61, field, 280 g of a.i./ha): 0%
Activity [%] against Lolium multiflorum ([18]; Table 5-54, field, 280 g of a.i./ha): 0%
Activity [%] against Setaria viridis ([16]; Table 5-26, field, 280 g of a.i./ha): 0%
Activity [%] against Setaria viridis ([16]; Table 5-80, field, 280 g of a.i./ha): 0%

COc1c(Cl)ccc(Cl)c1C(=O)O [dicamba]
Activity [%] against Brachiaria platyphylla ([9]; Greenhouse, dosage 12.5 g of a.i./ha, Table 5-105): 0%
Activity [%] against Brachiaria platyphylla ([9]; Table 5-64, greenhouse, alone, 25 g of a.i./ha): 10%
Activity [%] against Brachiaria platyphylla ([9]; Table 5-94, greenhouse, alone, 12.5 g of a.i./ha): 0%
Activity [%] against Digitaria sanguinalis ([10]; Greenhouse, dosage 12.5 g of a.i./ha): 0%
Activity [%] against Echinochloa crus-galli ([11]; Greenhouse, dosage 12.5 g of a.i./ha, Table 5-108): 0%
Activity [%] against Echinochloa crus-galli ([11]; Greenhouse, dosage 12.5 g of a.i./ha, Table 5-115): 0%
Activity [%] against Echinochloa crus-galli ([11]; Table 5-95, greenhouse, alone, 12.5 g of a.i./ha): 0%
Activity [%] against Setaria viridis ([13]; Table 5-65, greenhouse, 25 g of a.i./ha): 0%

O=C(Nc1ccc(F)cc1F)c1cccnc1Oc1cccc(C(F)(F)F)c1 [diflufenican]
Activity [%] against Lolium multiflorum ([18]; Table 5-58, field, 120 g of a.i./ha): 10%

CP(=O)(O)CCC(N)C(=O)O (centres unmarked) [glufosinate-ammonium]
Activity [%] against Sida spinosa ([19]; Table 5-10, field, 125 g of a.i./ha): 50%

O=C(O)CNCP(=O)([O-])O.[K+] [glyphosate-potassium]
Activity [%] against Sida spinosa ([19]; Table 5-11, field, 200 g of a.i./ha): 30%

O=C(O)CNCP(=O)(O)O [glyphosate]
Activity [%] against Cassia obtusifolia ([20]; Table 5-12, field, 200 g of a.i./ha): 65%

Cc1ccc2c(c1)[C@H](Nc1nc(N)nc(C(C)F)n1)[C@@H](C)C2 (some centres unmarked) [indaziflam]
Activity [%] against Cassia obtusifolia ([20]; Table 5-24, field, 25 g of a.i./ha): 65%

O=c1[nH]c2c(c(=O)n1C1CCCCC1)CCC2 [lenacil]
Activity [%] against Ambrosia artemisiifolia ([21]; Table 5-29, greenhouse, 16 g of a.i./ha): 0%
Activity [%] against Ambrosia artemisiifolia ([21]; Table 5-32, greenhouse, 4 g of a.i./ha): 0%
Activity [%] against Bidens pilosa ([8]; Greenhouse, dosage 4 g of a.i./ha): 0%
Activity [%] against Bidens pilosa ([8]; Table 5-28, greenhouse, alone, 4 g of a.i./ha): 0%
Activity [%] against Bidens pilosa ([8]; Table 5-33, greenhouse, alone, 4 g of a.i./ha): 0%
Activity [%] against Bidens pilosa ([8]; Table 5-71, greenhouse, alone, 400 g of a.i./ha): 0%
Activity [%] against Brachiaria platyphylla ([9]; Greenhouse, dosage 4 g of a.i./ha, Table 5-109): 0%
Activity [%] against Brachiaria platyphylla ([9]; Greenhouse, dosage 4 g of a.i./ha, Table 5-110): 0%
Activity [%] against Brachiaria platyphylla ([9]; Table 5-55, greenhouse, alone, 4 g of a.i./ha): 0%
Activity [%] against Brachiaria platyphylla ([9]; Table 5-57, greenhouse, alone, 4 g of a.i./ha): 0%
Activity [%] against Brachiaria platyphylla ([9]; Table 5-67, greenhouse, alone, 800 g of a.i./ha): 0%
Activity [%] against Digitaria sanguinalis ([10]; Table 5-35, greenhouse, alone, 4 g of a.i./ha): 0%
Activity [%] against Digitaria sanguinalis ([10]; Table 5-68, greenhouse, alone, 400 g of a.i./ha): 0%
Activity [%] against Echinochloa crus-galli ([11]; Table 5-69, greenhouse, alone, 400 g of a.i./ha): 0%
Activity [%] against Pharbitis purpurea ([12]; Table 5-30, greenhouse, 4 g of a.i./ha): 0%
Activity [%] against Pharbitis purpurea ([12]; Table 5-34, greenhouse, 4 g of a.i./ha): 0%
Activity [%] against Pharbitis purpurea ([12]; Table 5-72, greenhouse, 100 g of a.i./ha): 0%
Activity [%] against Setaria viridis ([13]; Table 5-27, greenhouse, 8 g of a.i./ha): 0%
Activity [%] against Setaria viridis ([13]; Table 5-31, greenhouse, 8 g of a.i./ha): 0%
Activity [%] against Setaria viridis ([13]; Table 5-70, greenhouse, 100 g of a.i./ha): 0%
Activity [%] against Xanthium strumarium ([14]; Table 5-56, greenhouse, 4 g of a.i./ha): 0%
Activity [%] against Xanthium strumarium ([14]; Table 5-73, greenhouse, 400 g of a.i./ha): 0%

CSc1nnc(C(C)(C)C)c(=O)n1N [metribuzin]
Activity [%] against Portulaca oleracea [22]: 0%
Activity [%] against Sida spinosa ([19]; Table 5-21, field, 50 g of a.i./ha): 25%

Cc1c(C(=O)c2cnn(C)c2O)ccc(S(C)(=O)=O)c1C1=NOCC1 [topramezone]
Activity [%] against Setaria viridis ([16]; Table 5-23, field, 9 g of a.i./ha): 30%
